In publication PMC3131501 (Journal of molecular biology, 2011):

How the values were obtained:
BA2930 = format: biochemical, Bacillus anthracis str. Ames; details: pH 7.5
wild type (wt) BA2930 = wild type (wt) BA2930 (Bacillus anthracis, UniProt A0A3P1UCA6); format: binding
Sequence of wild type (wt) BA2930 (A0A3P1UCA6 1-265): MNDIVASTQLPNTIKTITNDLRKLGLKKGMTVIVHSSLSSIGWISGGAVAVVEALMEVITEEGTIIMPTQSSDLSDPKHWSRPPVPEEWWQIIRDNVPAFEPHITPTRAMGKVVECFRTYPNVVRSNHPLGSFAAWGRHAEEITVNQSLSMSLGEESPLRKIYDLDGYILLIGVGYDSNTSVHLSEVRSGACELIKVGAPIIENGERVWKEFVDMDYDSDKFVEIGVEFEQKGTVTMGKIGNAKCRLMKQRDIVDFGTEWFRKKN

Compound	chemical modification by the enzyme (TLC) (BA2930)	N (stoichiometry) (wild type (wt) BA2930)	ΔH (wild type (wt) BA2930)	−TΔS (wild type (wt) BA2930)	Kd (wild type (wt) BA2930; pH 7.5)
NCC[C@H](O)C(=O)N[C@@H]1C[C@H](N)[C@@H](O[C@H]2O[C@H](CN)[C@@H](O)[C@H](O)[C@H]2O)[C@H](O)[C@H]1O[C@H]1O[C@H](CO)[C@@H](O)[C@H](N)[C@H]1O [Amikacin]	modified by the enzyme	–	–	–	–
NC[C@H]1O[C@H](O[C@H]2[C@H](O)[C@@H](O[C@H]3O[C@H](CO)[C@@H](O)[C@H](N)[C@H]3O)[C@H](N)C[C@@H]2N)[C@H](N)C[C@@H]1O [tobramycin]	modified by the enzyme	–	–	–	–
CC(=O)SCCNC(=O)CCNC(=O)[C@H](O)C(C)(C)COP(=O)(O)OP(=O)(O)OC[C@H]1O[C@@H](n2cnc3c(N)ncnc32)[C@H](O)[C@@H]1OP(=O)(O)O [AcCoA, Acetyl Coenzyme A]	–	1.140±0.013	-21.71 ± 0.46 kcal/mol	-15.61 kcal/mol	33.4 ± 2.53 µM
CC(C)(COP(=O)(O)OP(=O)(O)OC[C@H]1O[C@@H](n2cnc3c(N)ncnc32)[C@H](O)[C@@H]1OP(=O)(O)O)[C@@H](O)C(=O)NCCC(=O)NCCS [CoA, Coenzyme A]	–	1.000±0.031	-12.47 ± 0.53 kcal/mol	-5.36 kcal/mol	–
NC[C@H]1O[C@H](O[C@H]2[C@H](O)[C@@H](O[C@H]3O[C@H](CO)[C@@H](O)[C@H](N)[C@H]3O)[C@H](N)C[C@@H]2N)[C@H](O)[C@@H](O)[C@@H]1O [kanamycin]	modified by the enzyme	–	–	–	–
